Measurements taken from patent US10590115B2, “Tetrahydroquinazoline derivatives useful as anticancer agents” (PFIZER INC., priority 2018, dated 2020).

Experiments:
[1] = biological target: T1, KRAS G12C in MiaPaCa2 cells (Homo sapiens, UniProt P01116, G12C); experiment: MiaPaCa2 Cell Activity Assay (Raf-1 RBD capture of active Ras, MSD); type: cell-based; details: MIAPaCa-2 cells, 6 hours treatment; assay limit is 30.0 μM
T1 construct: endogenous in cells; host or cells: MiaPaCa2
Experimental: MiaPaCa2 Cell Activity Assay
Compounds presented in the present invention lead to the accumulation of the GDP bound Ras upon treatment of human cancer cell line.
The accumulation of the GDP-bound KRAS G12C in cellular environment was measured based on the principle that KRAS G12C only binds to its downstream kinase; Raf-1 (MAP Kinase Kinase Kinase), when in its active-GTP bound state. In this state, Ras binded to a domain of Raf-1 kinase referred to as the Ras Binding Domain (RBD).
MiaPaCa2 cells were grown in DMEM medium (Gibco 11995) supplemented with 10% fetal bovine serum and 1% penicillin/streptomycin. Cells were seeded in 96-well tissue culture plates at a density of 40,000 cells/well and allowed to attach for 16-24 hours. Test compounds were prepared as a 10 mM stock in DMSO and serially diluted in 100% DMSO using a 3-fold dilution scheme. An intermediate 5× concentrated plate in complete growth medium was made and 25 μl/well was added to the 100 μl of cells for a final concentration of 0.1% DMSO. Each concentration of exemplary compound was tested in duplicate. The negative control wells were cells with control inhibitor at 10 μM, and the positive control wells were cells without drugs, DMSO only. Plates were incubated for 6 hours at 37° C., 5% CO2. Following treatment, cells were washed 3× with ice-cold PBS and 100 μl/well ice-cold 1× Assay/Lysis. Buffer with protease inhibitors was added (25 mM HEPES, pH 7.5, 150 mM NaCl, 1% NP-40, 10 mM MgCl2, 1 mM EDTA, 2% Glycerol). Following lysis samples were frozen at −80° C.
Raf-1 RBD (LJIC-1988A1) was diluted to 100 ng/well in PBS and 5 μl/well was spot coated onto MSD high bind SECTOR plates (L15XB). Plates were incubated at room temperature for 1 hour on an orbital shaker. Plates were washed with PBS/0.05% Tween-20 and 50 μl/well of thawed lysate samples were added, followed by 50 μl of 1% MSD Blocker A in PBS/0.05% Tween-20 (R93BA). Plates were incubated for 1 hour on an orbital shaker and washed with PBS/0.05% Tween-20. 25 μl/well of Anti-pan-Ras Antibody (Cell Biolabs 244003) diluted 1:3000 was added in 1% MSD Blocker A solution and plates were incubated for 1 hour on an orbital shaker and washed with PBS/0.05% Tween-20. SULFO-TAG goat anti-mouse secondary antibody (MSD R32AC) was diluted 1:500 in MSD Blocker A solution and added at 25 μL/well. Plates were incubated for 1 hour on an orbital shaker and washed with PBS/0.05% Tween-20. 150 μl/well of Read Buffer T (MSD R92TC) diluted 1:3 in H2O was added and plates were read on a Meso Scale Discovery Sector Imager S600.
KRAS signal was normalized to maximum inhibition and DMSO control values, and IC50 values were generated using a 4 parameter fit of the dose response curve. The decrease in IC50 reflects that the exemplary compound lead to a higher level of accumulation of GDP-bound KRAS G12C than another exemplary compounds at specific timepoint of treatment of cancer cell line.

[2] = biological target: T2, GDP-loaded kRas (1-169) G12C, C51S, C80L, C118S (Homo sapiens, UniProt P01116, C118S/C51S/C80L/G12C); experiment: Mass Spectrometry Reactivity Assay (MSRA), covalent adduct with kRas G12C; type: binding; details: 0.5 h at room temperature; 5 μM KRas protein; typical final concentration of the compounds 10 μM
T2 construct: GDP-loaded kRas (1-169) G12C, C51S, C80L, C118S
Experimental: Mass Spectrometry Reactivity Assay (MSRA)
Compounds presented in the present invention covalently bind to kRas G12C using MSRA to detect a covalent adduct of the exemplary compound and kRas G12C. GDP-loaded kRas (1-169) G12C, C51S, C80L, C118S were diluted in the protein assay buffer 25 mM Hepes pH7.5, 200 mM NaCl, 5% glycerol to concentration of 5 μM and 20 μl of protein was transferred into 96-well plate. […] See K-Ras(G12C) inhibitors allosterically control GTP affinity and effector interactions; Ostrem J M, Peters U, Sos M L, Wells J A, Shokat K M; Nature. 2013, Nov. 28; 503(7477):548-51.
Exemplary compounds dissolved in DMSO were diluted 100-fold into solution containing 20 μl of 5 μM KRas protein in the 96-well plate to initiate the reaction. Mosquito (TPP Lab tech) liquid handling robot was used to add compounds to protein solution. Typical final concentration of the compounds was 10 μM. The plates were placed on a shaker for 1 min at RT, sealed and incubated at room temperature for specified time period. 5 μl of reaction mix was added to 10 μl of 0.2% formic acid stop solution and mixed well. Typical end points were 30, 120, 600 and 1440 min.
Data were collected using Waters Acquity H-class UPLC system/Xevo G2-XS TOF mass spectrometer. The protein was injected in their liquid phase onto a Bruker Microtrap protein column TR1/15109/03. The following buffers were used to set LC gradient: Buffer A: 0.2% formic acid H20; B: 0.2% formic acid CAN. The protein was eluted from the column using the following LC Gradient: 0-0.4 min, 10% B to 30% B; 0.4 min-2.4 min, to 90% B, 2.5 min, 10% B, 3 min, 10% B. Initial data analysis was performed using MaxEnt software right after data acquisition.
The standard auto processing function was used to define percentage of unmodified and modified kRas protein using MexEnt software right after data acquisition. The highest peak was defined as 100% while smaller peak as assigned the number defined by autoprocessing function. The percent of modification corresponding to modified with exemplary compound and unmodified KRas GDP-loaded kRas (1-169) G12C, C51S, C80L, C118S were exported to Xcel data analysis software.
The percent of modified protein at the defined concentration of exemplary compound was calculated using the following formula: % mod=Num of modified peak/Sum of modified+unmodified.

SMILES	IC50 [1]	% Modification (0.5 h) [2]
C=CC(=O)N1CCN(c2ncnc3c2C[C@@H](CO)[C@H](c2c(C)ccc4[nH]ncc24)C3)CC1 (relative stereo) [Example A7, 1-{4-[(6R,7R)-rel-6-(hydroxymethyl)-7-(5-methyl-1H-indazol-4-yl)-5,6,7,8-tetrahydroquinazolin-4-yl]piperazin-1-yl}prop-2-en-1-one]	29.3 µM	11%
C=CC(=O)N1CCN(c2ncnc3c2C[C@@H](C)[C@H](c2c(Cl)c(C)cc4[nH]ncc24)C3)CC1 (relative stereo) [Example A8, 1-{4-[(6R,7R)-rel-7-(5-chloro-6-methyl-1H-indazol-4-yl)-6-methyl-5,6,7,8-tetrahydroquinazolin-4-yl]piperazin-1-yl}prop-2-en-1-one]	0.462 µM	54%
C=CC(=O)N1CCN(c2ncnc3c2CCC(c2c(C)ccc4[nH]ncc24)C3)CC1 (stereo not drawn) [Example A1, 1-{4-[7-(5-methyl-1H-indazol-4-yl)-5,6,7,8-tetrahydroquinazolin-4-yl]piperazin-1-yl}prop-2-en-1-one]	7.86 µM	14%
C=CC(=O)N1CCN(c2ncnc3c2CC[C@H](c2c(C)ccc4[nH]ncc24)C3)CC1 (single isomer, unassigned) [Example A3]	4.15 µM	39%
C=CC(=O)N1CCN(c2ncnc3c2C[C@@H](C)[C@H](c2c(C)c(Cl)cc4[nH]ncc24)C3)CC1 (relative stereo) [Example A9, 1-{4-[(6R,7R)-rel-7-(6-chloro-5-methyl-1H-indazol-4-yl)-6-methyl-5,6,7,8-tetrahydroquinazolin-4-yl]piperazin-1-yl}prop-2-en-1-one]	0.155 µM	77%
C=CC(=O)N1CCN(c2ncnc3c2C[C@@H](C)[C@H](c2c(C)ccc4[nH]ncc24)C3)CC1 (relative stereo) [Example A4, 1-{4-[(6R,7R)-rel-6-methyl-7-(5-methyl-1H-indazol-4-yl)-5,6,7,8-tetrahydroquinazolin-4-yl]piperazin-1-yl}prop-2-en-1-one]	1.3 µM	53%

Continued, values first:

IC50 [1]	% Modification (0.5 h) [2]	SMILES
0.113 µM	79%	C=CC(=O)N1CCN(c2nc(N3CC(N(C)C)C3)nc3c2C[C@@H](C)[C@H](c2c(C)c(Cl)cc4[nH]ncc24)C3)C[C@H]1C [Example F13, 1-[(2R)-4-{(6R,7R)-7-(6-chloro-5-methyl-1H-indazol-4-yl)-2-[3-(dimethylamino)azetidin-1-yl]-6-methyl-5,6,7,8-tetrahydroquinazolin-4-yl}-2-methylpiperazin-1-yl]prop-2-en-1-one]
1.11 µM	73%	C=CC(=O)N1CCN(c2ncnc3c2CC[C@H](c2cc(O)cc4ccccc24)C3)CC1 (single isomer, unassigned) [Example G3]
4.29 µM	22%	C=CC(=O)N1CCN(c2nc(N3CCN(C)CC3)nc3c2C[C@@H](C)[C@H](c2c(C)ccc4[nH]ncc24)C3)CC1 (relative stereo) [Example F4]
1 µM	32%	C=CC(=O)N1CCN(c2nc(N3CC(CN(C)C)C3)nc3c2C[C@@H](C)[C@H](c2c(C)ccc4[nH]ncc24)C3)CC1 (relative stereo) [Example F9]
3.61 µM	34%	C=CC(=O)N1CCN(c2nc(OCCCO)nc3c2CCC(c2c(C)ccc4[nH]ncc24)C3)CC1 (stereo not drawn) [Example C4, 1-{4-[2-(3-hydroxpropoxy)-7-(5-methyl-1H-indazol-4-yl)-5,6,7,8-tetrahydroquinazolin-4-yl]piperazin-1-yl}prop-2-en-1-one]
0.178 µM	–	C=CC(=O)N1CCN(c2nc(N3CC(NC)C3)nc3c2C[C@@H](C)[C@H](c2c(C)c(Cl)cc4[nH]ncc24)C3)CC1 [Example H1, 1-(4-{(6R,7R)-7-(6-chloro-5-methyl-1H-indazol-4-yl)-6-methyl-2-[3-(methylamino)azetidin-1-yl]-5,6,7,8-tetrahydroquinazolin-4-yl}piperazin-1-yl)prop-2-en-1-one]
18.7 µM	9%	C=CC(=O)N1CC2(C1)CN(c1ncnc3c1CCC(c1c(C)ccc4[nH]ncc14)C3)C2 (stereo not drawn) [Example B1, 1-{6-[7-(5-methyl-1H-indazol-4-yl)-5,6,7,8-tetrahydroquinazolin-4-yl]-2,6-diazaspiro[3.3]hept-2-yl}prop-2-en-1-one]
28.4 µM	7%	C=CC(=O)N1CCN(c2ncnc3c2CCC(c2c(C)ccc4[nH]ncc24)C3)CC1C (stereo not drawn) [Example B3, 1-{2-methyl-4-[7-(5-methyl-1H-indazol-4-yl)-5,6,7,8-tetrahydroquinazolin-4-yl]piperazin-1-yl}prop-2-en-1-one]
9.84 µM	19%	C=CC(=O)N1CCN(c2nc(OCCOC)nc3c2CCC(c2c(C)ccc4[nH]ncc24)C3)CC1 (stereo not drawn) [Example C1, 1-{4-[2-(2-methoxyethoxy)-7-(5-methyl-1H-indazol-4-yl)-5,6,7,8-tetrahydroquinazolin-4-yl]piperazin-1-yl}prop-2-en-1-one]
12 µM	15%	C=CC(=O)N1CCN(c2nc(OCCO)nc3c2CCC(c2c(C)ccc4[nH]ncc24)C3)CC1 (stereo not drawn) [Example C3, 1-{4-[2-(2-hydroxyethoxy)-7-(5-methyl-1H-indazol-4-yl)-5,6,7,8-tetrahydroquinazolin-4-yl]piperazin-1-yl}prop-2-en-1-one]
22.9 µM	12%	C=CC(=O)N1CCN(c2nc(N3CC(N(C)C)C3)nc3c2C[C@H](C)[C@@H](c2c(Cl)c(C)cc4[nH]ncc24)C3)CC1 [Example F8, 1-(4-{(6S,7S)-7-(5-chloro-6-methyl-1H-indazol-4-yl)-2-[3-(dimethylamino)azetidin-1-yl]-6-methyl-5,6,7,8-tetrahydroquinazolin-4-yl}piperazin-1-yl)prop-2-en-1-one]
